From ChEMBL document CHEMBL1149766, “Quantitative structure activity relationship studies on thiourea analogues as influenza virus neuraminidase inhibitors” (Eur J Med Chem, 2008) come the findings set out here.

Structures are written as SMILES.

The target in this assay is Neuraminidase (Influenza A virus, UniProt B4URF0). As to the kind of experiment: Inhibition of Influenza A virus neuraminidase activity.
Sequence of Neuraminidase (B4URF0 whole entry): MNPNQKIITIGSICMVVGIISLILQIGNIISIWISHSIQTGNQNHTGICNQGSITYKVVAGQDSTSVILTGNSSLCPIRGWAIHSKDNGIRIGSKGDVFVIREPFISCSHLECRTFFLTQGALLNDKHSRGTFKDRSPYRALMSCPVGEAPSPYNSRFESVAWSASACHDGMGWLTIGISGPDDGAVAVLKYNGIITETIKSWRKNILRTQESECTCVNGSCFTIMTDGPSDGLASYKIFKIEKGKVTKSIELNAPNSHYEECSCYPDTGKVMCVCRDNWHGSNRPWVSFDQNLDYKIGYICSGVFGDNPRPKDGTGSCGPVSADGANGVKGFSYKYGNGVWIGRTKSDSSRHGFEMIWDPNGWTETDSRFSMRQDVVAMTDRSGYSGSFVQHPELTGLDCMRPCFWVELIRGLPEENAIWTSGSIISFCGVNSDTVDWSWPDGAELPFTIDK
For `COc1cc(Cl)nc(NC(=S)NC(=O)c2ccc(Cl)nc2)n1`, the IC50 (as a rule, the concentration that gives 50% inhibition) was greater than 20 µM.
The compound `CC(C)(C)NC(=O)NC(=S)NC(=O)c1c(F)cccc1F` had a half-inhibitory concentration (IC50) of 1.43 µM.
Compound `Cc1cc(O)nc(NC(=S)NC(=O)c2ccc(-c3ccc([N+](=O)[O-])cc3)o2)n1` registered an IC50 of 0.36 µM. This IC50 lies about 4-fold lower than the previous one.
On to `COc1cc(C)nc(NC(=S)NC(=O)c2ccc(Cl)nc2)n1`, for which the IC50 is greater than 20 µM.
Turning to `COc1cc(C)nc(NC(=S)NC(=O)c2ccc(-c3ccccc3Cl)o2)n1`, the half-inhibitory concentration (IC50) was greater than 20 µM.
Compound `COc1cc(OC)nc(NC(=S)NC(=O)c2ccc(-c3ccccc3Cl)o2)n1` displayed an IC50 of 1.77 µM.
Consider `CC(C)(C)NC(=O)NC(=S)NC(=O)c1ccccc1`, for which 1.79 µM corresponded to half-maximal inhibition (IC50). The IC50 values of the last two compounds are within 1.5-fold of each other.
`COc1cc(C)nc(NC(=S)NC(=O)c2ccc(-c3ccc([N+](=O)[O-])cc3)o2)n1` had a 50% inhibitory concentration (IC50) of 1.22 µM.
Under `CCOc1cc(Cl)nc(NC(=S)NC(=O)c2ccc(-c3ccccc3Cl)o2)n1` stands greater than 20 µM; under `CCOc1cc(OCC)nc(NC(=S)NC(=O)c2cccnc2Cl)n1`, greater than 20 µM; under `CC(C)(C)NC(=O)NC(=S)NC(=O)c1ccc(-c2ccc([N+](=O)[O-])cc2)o1`, 1.3 µM.
On to `COc1cc(OC)nc(NC(=S)NC(=O)c2cccnc2)n1`, for which the IC50 was greater than 20 µM.
On to `COc1cc(Cl)nc(NC(=S)NC(=O)c2cccnc2Cl)n1`, for which the IC50 came to 2.59 µM.
Take `Cc1cc(O)nc(NC(=S)NC(=O)c2ccc(Cl)nc2)n1`: the IC50 stood at 8.58 µM.
The figure for `CC(C)[C@H](C(=O)NC(=S)NC(=O)NC(C)(C)C)c1ccc(Cl)cc1` is 1.35 µM.
`CCOc1cc(C)nc(NC(=S)NC(=O)c2ccc(-c3ccc([N+](=O)[O-])cc3)o2)n1` gave an IC50 of 2.3 µM.
Consider `CCOc1cc(C)nc(NC(=S)NC(=O)c2ccc(-c3ccccc3Cl)o2)n1`, for which the concentration for half-maximal inhibition (IC50) was found to be 1.65 µM.
`CC(C)(C)NC(=O)NC(=S)NC(=O)COc1ccc(Cl)cc1Cl` yielded an IC50 of 1.67 µM.
Turning to `Cc1cc(C)nc(NC(=S)NC(=O)c2cccnc2Cl)n1`, the IC50 amounted to 7.19 µM.
Under `CC(C)(C)NC(=O)NC(=S)NC(=O)c1ccc(-c2ccccc2Cl)o1` stands 1.42 µM; under `COc1cc(OC)nc(NC(=S)NC(=O)c2cnc(Cl)c(Cl)c2)n1`, 18.5 µM.
`O=C(NC(=S)Nc1nc(Cl)cc(Cl)n1)c1ccc(-c2ccccc2Cl)o1` had an IC50 of 14.5 µM.
For `CCOc1cc(OCC)nc(NC(=S)NC(=O)c2ccc(-c3ccc([N+](=O)[O-])cc3)o2)n1`, the IC50 is greater than 20 µM.
For the compound `CCOc1cc(OCC)nc(NC(=S)NC(=O)c2ccc(Cl)nc2)n1`, the IC50 is greater than 20 µM.
The figure for `Cc1cc(O)nc(NC(=S)NC(=O)c2ccc(-c3ccccc3Cl)o2)n1` is 0.32 µM; for `COC(=O)NC(=S)NC(=O)NC(C)(C)C` it is 1.83 µM; for `CCOc1cc(OCC)nc(NC(=S)NC(=O)c2ccc(-c3ccccc3Cl)o2)n1` it is 0.08 µM.
With `CCOc1cc(Cl)nc(NC(=S)NC(=O)c2cccnc2Cl)n1`, the IC50 was greater than 20 µM.
`COc1cc(Cl)nc(NC(=S)NC(=O)c2ccc(-c3ccccc3Cl)o2)n1` had an IC50 of 1.29 µM.
In turn, `CC(C)(C)NC(=O)NC(=S)NC(=O)[C@H]1[C@H](C=C(Cl)Cl)C1(C)C` registered an IC50 of 0.26 µM.
Regarding `CC(C)C(C(=O)NC(=S)Nc1nc(Cl)cc(Cl)n1)c1ccc(Cl)cc1` (stereo not given), the IC50 is greater than 20 µM.
`COc1cc(OC)nc(NC(=S)NC(=O)C2C(/C=C(\Cl)C(F)(F)F)C2(C)C)n1` (stereo not given) registered an IC50 of 0.97 µM.
Under `CC(C)(C)NC(=O)NC(=S)NC(=O)[C@@H]1[C@H](/C=C(\Cl)C(F)(F)F)C1(C)C` stands 0.51 µM.
The compound `COc1cc(OC)nc(NC(=S)NC(=O)COc2ccc(Cl)cc2Cl)n1` came in with an IC50 of 1.89 µM.
The compound `Cc1cc(C)nc(NC(=S)NC(=O)c2ccc(Cl)cc2F)n1` displayed an IC50 of 1.36 µM.
Turning to `Cc1cc(C)nc(NC(=S)NC(=O)c2ccccc2)n1`, the IC50 was 2.1 µM. Against the preceding compound, the IC50 is about 1.5-fold higher.
In turn, `COc1cc(Cl)nc(NC(=S)NC(=O)c2ccc(Cl)cc2F)n1` showed an IC50 of 5.1 µM. This IC50 lies about 2.4-fold higher than the previous one.
`O=C(NC(=S)Nc1nc(Cl)cc(Cl)n1)c1ccc(-c2ccc([N+](=O)[O-])cc2)o1` displayed an IC50 of 1.66 µM.
Compound `Cc1cc(C)nc(NC(=S)NC(=O)C2C(/C=C(\Cl)C(F)(F)F)C2(C)C)n1` (stereo not given) gave an IC50 of 0.58 µM.
`CCOc1cc(OCC)nc(NC(=S)NC(=O)C(c2ccc(Cl)cc2)C(C)C)n1` (stereo not given): the IC50 was found to be 0.31 µM.
